ChEMBL document CHEMBL1126375, “Synthesis of chiral phosphorus mustards derived from serine” (Bioorg Med Chem Lett, 1992)
Calls of active or inactive are those of the source. The rule behind the calls is not given here.

What was measured:
Tumor cell line = test: Compound was tested for in vitro activity against tumor cell lines; NA=No activity; assay type: functional, cell-based
[1] = system: Human immunodeficiency virus 1; test: Compound was tested for in vitro anti-human immunodeficiency virus activity; NA=No activity; assay type: functional, organism-based

Row | Compound | Activity (Tumor cell line) | Activity [1]
1 | COC(=O)[C@H]1CO[P@](=O)(N(CCCl)CCCl)N1Cc1ccccc1 | inactive | inactive
2 | COC(=O)[C@@H]1CO[P@@](=O)(N(CCCl)CCCl)N1Cc1ccccc1 (stereo in doubt; 5a) | inactive | inactive
3 | COC(=O)[C@@H]1CO[P@@](=O)(N(CCCl)CCCl)N1Cc1ccccc1 (stereo in doubt; 7a) | inactive | inactive
4 | COC(=O)[C@@H]1CO[P@@](=O)(N(CCCl)CCCl)N1Cc1ccccc1 (stereo in doubt; 5b) | inactive | inactive
